Results as given in paper PMC6008489 (Bioorganic & Medicinal Chemistry, 2018).
Structures can show the parent of a compound that is named as a salt.

Key:
MPS1 [1] = biological target: T1, MPS1 (Homo sapiens, UniProt P33981); type: biochemical; settings: for Ki: calculated from mean IC50 using the Cheng-Prusoff equation; for MPS1 ligand efficiency (LE): from Ki
T1 sequence (P33981 1-857): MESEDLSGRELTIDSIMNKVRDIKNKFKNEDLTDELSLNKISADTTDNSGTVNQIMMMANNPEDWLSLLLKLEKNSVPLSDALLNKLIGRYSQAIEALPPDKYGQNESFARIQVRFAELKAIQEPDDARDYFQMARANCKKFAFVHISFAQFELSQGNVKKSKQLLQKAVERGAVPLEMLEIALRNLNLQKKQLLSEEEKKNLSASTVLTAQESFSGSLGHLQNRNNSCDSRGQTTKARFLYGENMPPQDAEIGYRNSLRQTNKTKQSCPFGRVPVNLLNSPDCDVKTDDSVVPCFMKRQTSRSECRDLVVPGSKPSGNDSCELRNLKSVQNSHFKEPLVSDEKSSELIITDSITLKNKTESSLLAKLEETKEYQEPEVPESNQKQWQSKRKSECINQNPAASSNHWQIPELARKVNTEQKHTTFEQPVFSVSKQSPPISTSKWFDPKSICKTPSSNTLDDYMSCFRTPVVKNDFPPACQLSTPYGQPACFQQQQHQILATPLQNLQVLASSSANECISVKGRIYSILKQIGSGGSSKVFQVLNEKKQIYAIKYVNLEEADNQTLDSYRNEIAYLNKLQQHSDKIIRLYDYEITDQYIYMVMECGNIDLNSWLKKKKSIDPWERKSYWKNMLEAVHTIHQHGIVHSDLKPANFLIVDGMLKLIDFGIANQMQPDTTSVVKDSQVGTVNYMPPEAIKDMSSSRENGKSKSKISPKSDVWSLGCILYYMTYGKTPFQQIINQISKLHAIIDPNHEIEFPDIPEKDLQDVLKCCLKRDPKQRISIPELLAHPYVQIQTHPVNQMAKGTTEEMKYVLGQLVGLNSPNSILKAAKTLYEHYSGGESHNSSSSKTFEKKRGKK
Procedure: (§1) IC50 values were obtained for an expanded version of the fragment library using the previously described mobility shift assay.[44] Subsequently, Ki values were estimated from IC50 values to allow better comparison of the activity against targets which were measured at different substrate concentrations (Supplementary data Table 1).
(§2) IC50 values for MPS1, Aurora A and Aurora B inhibition were determined as previously described,[44] and Ki values were estimated from the mean IC50 values using the Cheng-Prusoff equation.[48]
(§3) Kinase [ATP] (M) [Enzyme] (nM) [Peptide Substrate] (M) MgCl2 (mM)
(§4) For all compounds, IC50 values for MPS1, Aurora A, and Aurora B were determined
(§5) using MPS1 and Aurora A/B mobility shift assays as described previously.1 IC50
(§6) values were calculated from a four-parameter logistic fit of percentage inhibition
(§7) versus concentration (at 8 compound concentrations) using GraphPad Prism 5
(§8) (GraphPad Software, Inc., CA, USA). Mean IC50 values were determined from two
(§9) independent measurements each carried out in duplicate. Ki values were estimated
(§10) from the mean IC50 values using the Cheng-Prusoff equation.

Aurora A = biological target: T2, Aurora A (Homo sapiens, UniProt O14965); type: biochemical; settings: for Ki: calculated from mean IC50 using the Cheng-Prusoff equation, read-out: AurA Ki; for AurA ligand efficiency (LE): from Ki
T2 sequence (O14965 1-403): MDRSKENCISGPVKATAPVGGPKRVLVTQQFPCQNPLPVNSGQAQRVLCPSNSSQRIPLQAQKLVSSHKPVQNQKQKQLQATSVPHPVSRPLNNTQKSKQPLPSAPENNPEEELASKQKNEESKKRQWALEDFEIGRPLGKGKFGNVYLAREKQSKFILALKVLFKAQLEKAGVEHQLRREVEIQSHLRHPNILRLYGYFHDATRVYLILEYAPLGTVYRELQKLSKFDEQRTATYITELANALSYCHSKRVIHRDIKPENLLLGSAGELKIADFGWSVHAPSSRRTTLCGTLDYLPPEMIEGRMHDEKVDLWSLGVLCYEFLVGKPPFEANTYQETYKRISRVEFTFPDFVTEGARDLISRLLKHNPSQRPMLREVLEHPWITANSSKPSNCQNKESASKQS
Procedure: as §1, §2, §3, §4, §5, §6, §7, §8, §9, §10

Aurora B = Aurora B (Homo sapiens, UniProt Q96GD4); type: biochemical; settings: for Ki: calculated from mean IC50 using the Cheng-Prusoff equation, read-out: AurB Ki; for AurB ligand efficiency (LE): from Ki;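 on all read-outs here: aurora B inhibition measured in a mobility shift assay, underlying mean IC50 taken from two independent duplicate runs at 8 compound concentrations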
Aurora B, sequence (Q96GD4 whole entry): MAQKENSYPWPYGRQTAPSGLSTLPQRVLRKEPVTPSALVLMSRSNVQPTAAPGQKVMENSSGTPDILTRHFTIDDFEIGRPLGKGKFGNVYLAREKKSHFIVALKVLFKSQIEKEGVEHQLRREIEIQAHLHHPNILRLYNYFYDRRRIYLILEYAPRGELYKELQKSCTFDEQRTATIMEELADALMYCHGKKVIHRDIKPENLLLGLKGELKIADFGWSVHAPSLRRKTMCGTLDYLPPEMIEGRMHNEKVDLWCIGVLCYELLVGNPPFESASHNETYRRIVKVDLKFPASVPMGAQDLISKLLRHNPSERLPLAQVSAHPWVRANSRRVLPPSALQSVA
Procedure: as §1, §2, §3, §4, §5, §6, §7, §8, §9, §10

MPS1 [2] = biological target: T1, MPS1; assay: biochemical; settings: read-out: % Inhibition MPS1
Procedure: (§11) In order to test the biochemical activity of our fragment library, a panel of 26 structurally diverse protein kinases was used.
(§12) Screening of 26 kinases using a mobility shift assay
(§13) A mobility shift assay to determine kinase inhibition was carried out using a
(§14) modified version of the ProfilerPro assay kit 1 (Perkin Elmer, Coventry, UK)
(§15) including MPS1 and Aurora B. Each kit contained an enzyme plate, a substrate
(§16) plate, reconstitution buffer, 1 M DTT, protease inhibitor cocktail and termination
(§17) buffer. Test compounds were added as a solution in DMSO.
(§18) peptide phosphorylation assay was carried out as per the manufacturer’s
(§19) instructions. The electrophoretic separation and analysis of the phosphorylated
(§20) and non-phosphorylated peptides was carried out on a 4-sipper chip using a
(§21) LabChip EZReader II (Perkin Elmer). Results were expressed as % inhibition of
(§22) peptide phosphorylation relative to control wells for 0 % (no test compound) and
(§23) 100 % (no ATP) inhibition. The percentage inhibition was calculated using the
(§24) % Inhibition = [1 - (% Conversion Sample / % Conversion 0% Inhibition Control)] x 100

SRC = biological target: T3, SRC (Homo sapiens, UniProt P12931); assay: 26-kinase panel mobility shift assay, single concentration; type: biochemical; settings: read-out: % Inhibition SRC
T3 construct: purchased Perkin Elmer (ProfilerPro assay kit 1)
T3 sequence (P12931 whole entry): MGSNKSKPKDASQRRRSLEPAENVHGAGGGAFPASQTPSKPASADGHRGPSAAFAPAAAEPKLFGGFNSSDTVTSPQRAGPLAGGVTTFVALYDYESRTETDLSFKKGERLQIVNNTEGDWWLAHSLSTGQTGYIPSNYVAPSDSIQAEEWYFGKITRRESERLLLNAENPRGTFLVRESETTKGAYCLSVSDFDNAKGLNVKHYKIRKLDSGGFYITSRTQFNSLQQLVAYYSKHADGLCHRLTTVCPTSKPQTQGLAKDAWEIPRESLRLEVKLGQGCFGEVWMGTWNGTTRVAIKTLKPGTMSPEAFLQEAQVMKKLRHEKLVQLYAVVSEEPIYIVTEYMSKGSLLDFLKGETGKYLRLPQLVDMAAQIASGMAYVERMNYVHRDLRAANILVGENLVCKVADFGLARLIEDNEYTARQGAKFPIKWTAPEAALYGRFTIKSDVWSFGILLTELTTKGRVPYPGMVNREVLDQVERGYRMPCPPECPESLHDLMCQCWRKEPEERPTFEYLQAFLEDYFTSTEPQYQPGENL
Procedure: as §11, §12, §13, §14, §15, §16, §17, §18, §19, §20, §21, §22, §23, §24

INSR = biological target: T4, INSR (Homo sapiens, UniProt P06213); assay: as above; type: biochemical; settings: read-out: % Inhibition INSR
T4 construct: purchased Perkin Elmer (ProfilerPro assay kit 1)
T4 sequence (P06213 28-1382): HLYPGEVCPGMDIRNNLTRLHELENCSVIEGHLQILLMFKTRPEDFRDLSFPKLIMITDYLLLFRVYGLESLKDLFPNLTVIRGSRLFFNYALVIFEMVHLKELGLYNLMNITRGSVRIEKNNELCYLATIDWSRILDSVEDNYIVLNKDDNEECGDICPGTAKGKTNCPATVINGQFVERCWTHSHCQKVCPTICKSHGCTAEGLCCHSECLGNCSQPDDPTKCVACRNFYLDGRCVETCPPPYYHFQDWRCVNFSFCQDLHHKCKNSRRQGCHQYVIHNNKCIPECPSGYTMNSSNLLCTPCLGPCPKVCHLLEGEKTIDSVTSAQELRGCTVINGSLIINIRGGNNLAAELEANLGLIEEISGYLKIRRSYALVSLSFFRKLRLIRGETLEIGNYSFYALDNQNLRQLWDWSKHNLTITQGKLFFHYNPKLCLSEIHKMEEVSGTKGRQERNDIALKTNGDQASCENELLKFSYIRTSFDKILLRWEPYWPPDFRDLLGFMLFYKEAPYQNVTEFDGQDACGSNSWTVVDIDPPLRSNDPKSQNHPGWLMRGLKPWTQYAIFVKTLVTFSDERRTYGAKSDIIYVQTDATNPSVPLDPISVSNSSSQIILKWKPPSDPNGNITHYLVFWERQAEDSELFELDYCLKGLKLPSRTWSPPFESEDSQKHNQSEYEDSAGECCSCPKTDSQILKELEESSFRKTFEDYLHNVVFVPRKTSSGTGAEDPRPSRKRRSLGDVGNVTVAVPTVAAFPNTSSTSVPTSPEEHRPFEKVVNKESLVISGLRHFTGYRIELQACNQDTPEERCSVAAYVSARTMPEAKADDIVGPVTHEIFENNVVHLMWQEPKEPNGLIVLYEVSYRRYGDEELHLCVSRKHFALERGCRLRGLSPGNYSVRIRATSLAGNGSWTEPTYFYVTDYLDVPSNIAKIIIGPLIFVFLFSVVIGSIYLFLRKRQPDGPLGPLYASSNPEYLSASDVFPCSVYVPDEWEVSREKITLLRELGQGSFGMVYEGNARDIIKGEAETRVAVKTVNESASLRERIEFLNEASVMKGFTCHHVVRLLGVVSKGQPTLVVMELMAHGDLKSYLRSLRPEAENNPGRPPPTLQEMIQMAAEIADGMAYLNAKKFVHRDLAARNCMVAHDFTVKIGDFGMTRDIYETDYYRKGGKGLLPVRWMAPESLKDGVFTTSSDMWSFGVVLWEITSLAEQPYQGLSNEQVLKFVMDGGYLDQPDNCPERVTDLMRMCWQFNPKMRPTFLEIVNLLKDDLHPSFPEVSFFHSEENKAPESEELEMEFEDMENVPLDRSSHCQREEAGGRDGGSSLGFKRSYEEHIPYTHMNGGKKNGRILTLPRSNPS
Procedure: as §11, §12, §13, §14, §15, §16, §17, §18, §19, §20, §21, §22, §23, §24

AKT2 = biological target: T5, AKT2 (Homo sapiens, UniProt P31751); assay: as above; type: biochemical; settings: read-out: % Inhibition AKT2
T5 construct: purchased Perkin Elmer ProfilerPro assay kit 1
T5 sequence (P31751 whole entry): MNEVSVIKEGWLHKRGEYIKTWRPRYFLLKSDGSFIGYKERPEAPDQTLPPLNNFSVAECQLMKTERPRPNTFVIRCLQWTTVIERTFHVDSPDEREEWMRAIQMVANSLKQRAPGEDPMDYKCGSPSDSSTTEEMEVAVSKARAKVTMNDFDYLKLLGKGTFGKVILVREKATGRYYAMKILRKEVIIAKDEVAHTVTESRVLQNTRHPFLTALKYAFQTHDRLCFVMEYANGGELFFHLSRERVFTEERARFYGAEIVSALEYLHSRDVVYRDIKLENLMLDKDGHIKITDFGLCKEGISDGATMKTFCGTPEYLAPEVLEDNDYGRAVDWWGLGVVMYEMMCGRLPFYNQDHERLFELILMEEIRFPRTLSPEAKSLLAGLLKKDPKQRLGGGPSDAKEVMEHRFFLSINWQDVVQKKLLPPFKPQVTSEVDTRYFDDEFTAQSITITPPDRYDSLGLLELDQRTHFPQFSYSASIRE
Procedure: as §11, §12, §13, §14, §15, §16, §17, §18, §19, §20, §21, §22, §23, §24

**Q.** Which Ki (MPS1 [1]) does the source give for `Nc1cc(-c2cccnc2)c[nH]c1=O` [Compound 11] here?
**A.** 98.1 µM

**Q.** What about the “MPS1 ligand efficiency (LE)” value (MPS1 [1]) of the same compound?
**A.** 0.39

**Q.** And the Ki (Aurora A)?
**A.** 125 µM

**Q.** And the “AurA ligand efficiency (LE)” value (Aurora A)?
**A.** 0.38

**Q.** And the Ki (Aurora B)?
**A.** 97.2 µM

**Q.** What about the “AurB ligand efficiency (LE)” value (Aurora B) of the same compound?
**A.** 0.39

**Q.** For `Nc1cc(-c2ccccc2)cnc1O` [Compound 9, 3-Amino-5-phenyl-pyridin-2-one], which Ki (MPS1 [1]) is on record?
**A.** 128 µM

**Q.** And the “MPS1 ligand efficiency (LE)” value (MPS1 [1])?
**A.** 0.38

**Q.** And the Ki (Aurora A)?
**A.** 66.9 µM

**Q.** And the “AurA ligand efficiency (LE)” value (Aurora A)?
**A.** 0.41

**Q.** What about the Ki (Aurora B) of the same compound?
**A.** 70.3 µM

**Q.** And the “AurB ligand efficiency (LE)” value (Aurora B)?
**A.** 0.40

**Q.** With `Nc1cc(-c2cncnc2)c[nH]c1=O` (as salt: sodium) [Compound 10, 3-Amino-5-(pyrimidin-5-yl)pyridin-2(1H)-one] as the compound, how does the melting point read?
**A.** 240 °C

**Q.** For `O=C(Nc1cc(-c2ccncc2)c[nH]c1=O)c1ccc(N2CCCCC2)cc1` [Compound 23], which Ki (MPS1 [1]) is on record?
**A.** 2.9 µM

**Q.** What about the “MPS1 ligand efficiency (LE)” value (MPS1 [1]) of the same compound?
**A.** 0.27

**Q.** What about the Ki (Aurora A) of the same compound?
**A.** 2.6 µM

**Q.** And the “AurA ligand efficiency (LE)” value (Aurora A)?
**A.** 0.27

**Q.** What about the Ki (Aurora B) of the same compound?
**A.** 7.4 µM

**Q.** What about the “AurB ligand efficiency (LE)” value (Aurora B) of the same compound?
**A.** 0.25

**Q.** And the melting point?
**A.** 284 °C

**Q.** With `COc1cccc(C(=O)Nc2cc(-c3ccncc3)c[nH]c2=O)c1` [Compound 17, 3-Methoxy-N-(2-oxo-5-(pyridin-4-yl)-1,2-dihydropyridin-3-yl)benzamide] as the compound, how does the Ki (MPS1 [1]) read?
**A.** 24.8 µM

**Q.** And the inhibition at 100 µM (MPS1 [2])?
**A.** 42%

**Q.** What about the inhibition at 100 µM (SRC) of the same compound?
**A.** 59%

**Q.** What about the inhibition at 100 µM (INSR) of the same compound?
**A.** 21%

**Q.** What about the inhibition at 100 µM (AKT2) of the same compound?
**A.** 50%

**Q.** And the melting point?
**A.** 287 °C

**Q.** For `COc1cc(OC)cc(C(=O)Nc2cc(-c3ccncc3)c[nH]c2=O)c1` [Compound 18, 3,5-Dimethoxy-N-(2-oxo-5-(pyridin-4-yl)-1,2-dihydropyridin-3-yl)benzamide], which Ki (MPS1 [1]) is on record?
**A.** 30.1 µM

**Q.** And the Ki (Aurora A)?
**A.** > 100 µM

**Q.** What about the Ki (Aurora B) of the same compound?
**A.** 32.9 µM

**Q.** For `O=C(Nc1cc(-c2ccncc2)c[nH]c1=O)c1cc(F)cc(F)c1` [Compound 20], which melting point is on record?
**A.** 293 °C

**Q.** With `Nc1cc(-c2cncnc2)c[nH]c1=O` [Compound 10, 3-Amino-5-(pyrimidin-5-yl)pyridin-2(1H)-one] as the compound, how does the Ki (MPS1 [1]) read?
**A.** 269 µM

**Q.** And the “MPS1 ligand efficiency (LE)” value (MPS1 [1])?
**A.** 0.35

**Q.** What about the Ki (Aurora A) of the same compound?
**A.** 89.6 µM

**Q.** And the “AurA ligand efficiency (LE)” value (Aurora A)?
**A.** 0.39

**Q.** And the Ki (Aurora B)?
**A.** 18.7 µM

**Q.** And the “AurB ligand efficiency (LE)” value (Aurora B)?
**A.** 0.46

**Q.** What does the source list for `Cc1[nH]c(=O)c(C(N)=O)cc1-c1ccncc1` [Compound 14]?
**A.** Ki (MPS1 [1]): > 100 µM; Ki (Aurora A): > 100 µM; Ki (Aurora B): > 100 µM

**Q.** What does the source list for `Cc1[nH]c(=O)c(C#N)cc1-c1ccncc1` [Compound 13, Milrinone, reference compound]?
**A.** Ki (MPS1 [1]): > 100 µM; Ki (Aurora A): > 100 µM; Ki (Aurora B): > 100 µM

**Q.** For `O=c1[nH]cc(-c2ccncc2)cc1NS(=O)(=O)c1ccccc1` [Compound 21], which Ki (MPS1 [1]) is on record?
**A.** > 100 µM

**Q.** And the Ki (Aurora A)?
**A.** > 100 µM

**Q.** And the Ki (Aurora B)?
**A.** > 100 µM

**Q.** What about the melting point of the same compound?
**A.** 289 °C

**Q.** For `O=C(Nc1cc(-c2ccncc2)c[nH]c1=O)c1cccc(F)c1` [Compound 19, 3-Fluoro-N-(2-oxo-5-(pyridin-4-yl)-1,2-dihydropyridin-3-yl)benzamide], which Ki (MPS1 [1]) is on record?
**A.** > 100 µM

**Q.** And the Ki (Aurora A)?
**A.** > 100 µM

**Q.** And the Ki (Aurora B)?
**A.** > 100 µM

**Q.** What about the melting point of the same compound?
**A.** 292 °C
